Measurements reported in US20240294498A1, “FACTOR XIIA INHIBITORS” (Lunac Therapeutics Ltd, priority 2021, published 2024).

Columns and labels:
Format in all cases: biochemical
[1] = target: T1, thrombin (Homo sapiens, UniProt P00734); assay: Determination of selectivity: thrombin inhibition (chromogenic substrate GPR); settings: fold selectivity for FXIIa over thrombin (human); category
T1 construct: FXa (5 nM) and thrombin (5 nM)
In short: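 Thrombin (5 nM) preincubated with increasing compound concentrations (top 500 μM, 5% DMSO) 10 min at 37 °C in 50 mM Tris, 137 mM NaCl pH 7.4, then GPR chromogenic substrate at its KM. pNA release read kinetically at 405 nm for 3 h at 37 °C. IC50 from initial rates, converted to Ki via Cheng–Prusoff.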

[2] = target: FXa (Homo sapiens, UniProt P00742); assay: Determination of selectivity: FXa inhibition (chromogenic substrate S2765); settings: fold selectivity for FXIIa over FXa (human); category
FXa, sequence (P00742 235-488 limits assumed): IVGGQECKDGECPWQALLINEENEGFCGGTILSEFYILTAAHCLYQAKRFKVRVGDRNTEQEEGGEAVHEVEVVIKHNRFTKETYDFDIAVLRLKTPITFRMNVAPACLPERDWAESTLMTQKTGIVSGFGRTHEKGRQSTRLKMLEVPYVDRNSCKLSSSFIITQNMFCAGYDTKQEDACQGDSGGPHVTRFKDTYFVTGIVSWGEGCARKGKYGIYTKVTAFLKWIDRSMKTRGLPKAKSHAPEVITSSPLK
FXa, sequence (P00742 41-179 partner limits assumed): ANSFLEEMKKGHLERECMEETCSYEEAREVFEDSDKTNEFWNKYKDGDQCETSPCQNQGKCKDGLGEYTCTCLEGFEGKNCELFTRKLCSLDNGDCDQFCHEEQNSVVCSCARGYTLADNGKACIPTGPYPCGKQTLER
In short: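 FXa (5 nM) preincubated with increasing compound (top 500 μM) for 10 mins at 37° C in 50 mM Tris, 137 mM NaCl pH 7.4, 5% DMSO, then S2765 added at its KM. Absorbance at 405 nm followed kinetically for 3 hours; IC50 from initial rates, converted to Ki by Cheng-Prusoff.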

[3] = target: T2, FXIIa (Homo sapiens, UniProt P00748); assay: Determination of Factor XIIa inhibition (chromogenic substrate S-2302); settings: human FXIIa alpha, Ki category
T2 construct: FXIIa alpha
T2 sequence (P00748 373-615 limits assumed): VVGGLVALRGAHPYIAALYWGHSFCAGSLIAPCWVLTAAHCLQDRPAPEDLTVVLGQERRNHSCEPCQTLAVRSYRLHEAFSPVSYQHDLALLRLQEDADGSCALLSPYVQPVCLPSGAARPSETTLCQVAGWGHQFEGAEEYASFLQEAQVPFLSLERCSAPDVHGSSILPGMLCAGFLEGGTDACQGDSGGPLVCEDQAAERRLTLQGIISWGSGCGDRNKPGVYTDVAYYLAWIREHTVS
T2 sequence (P00748 20-372 partner limits assumed): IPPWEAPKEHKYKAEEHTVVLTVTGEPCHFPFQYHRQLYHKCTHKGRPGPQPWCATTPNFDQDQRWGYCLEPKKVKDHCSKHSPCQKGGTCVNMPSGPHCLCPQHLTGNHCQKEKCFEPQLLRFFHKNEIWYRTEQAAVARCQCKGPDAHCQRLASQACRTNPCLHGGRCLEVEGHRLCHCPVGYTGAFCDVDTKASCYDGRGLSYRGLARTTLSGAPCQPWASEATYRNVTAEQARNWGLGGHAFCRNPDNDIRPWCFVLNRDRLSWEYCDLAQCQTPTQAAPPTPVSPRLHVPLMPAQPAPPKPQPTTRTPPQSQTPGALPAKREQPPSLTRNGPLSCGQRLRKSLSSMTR
In short: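 Compound preincubated with 10 nM FXIIa for 10 min at 37° C in 50 mM Tris, 137 mM NaCl, pH 7.4, 5% DMSO, top concentration 500 μM; S-2302 added at Km. pNA release followed at 405 nm for 3 h; IC50 from initial rates, converted to Ki via Ki = IC50/(1+[S]/Km).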

Compound	Thrombin (human)/FXIIa alpha (human) [1]	FXa (human)/FXIIa alpha (human) [2]	Ki [3] [nM]
Cc1ccc(C[C@@H]2C[C@@H](C(=O)NCc3ccc4c(cnn4C)c3)N(C(=O)[C@@H]3NCCC[C@@H]3C(=O)N3CC(F)C3)C2)cc1 [Example M05878, (2S,4R)-1-((2R,3S)-3-(3-fluoroazetidine-1-carbonyl)piperidine-2-carbonyl)-N-((1-methyl-1H-indazol-5-yl)methyl)-4-(4-methylbenzyl)pyrrolidine-2-carboxamide]	+++ (fold selectivity values greater than 100)	∘∘∘	< 200
Cn1nnc2cc(CNC(=O)[C@@H]3C[C@@H](Cc4ccc5ccccc5c4)CN3C(=O)[C@@H]3NCCC[C@@H]3C(=O)N3CCCC3)ccc21 [Example M05881, (2S,4R)-N-((1-methyl-1H-benzo[d][1,2,3]triazol-5-yl)methyl)-4-(naphthalen-2-ylmethyl)-1-((2R,3S)-3-(pyrrolidine-1-carbonyl)piperidine-2-carbonyl)pyrrolidine-2-carboxamide]	+++ (fold selectivity values greater than 100)	∘∘∘	< 200
Cc1nnc2cc(CNC(=O)[C@@H]3C[C@@H](Cc4ccc(C(F)(F)F)cc4)CN3C(=O)[C@@H]3NCCC[C@@H]3C(=O)N3CCCC3)ccn12 [Example M05882, (2S,4R)-N-((3-methyl-[1,2,4]triazolo[4,3-a]pyridin-7-yl)methyl)-1-((2R,3S)-3-(pyrrolidine-1-carbonyl)piperidine-2-carbonyl)-4-(4-(trifluoromethyl)benzyl)pyrrolidine-2-carboxamide]	+++ (fold selectivity values greater than 100)	∘∘∘	800 to 5000
Cc1ccc(C[C@@H]2C[C@@H](C(=O)NCc3cnc4[nH]cc(Cl)c4c3)N(C(=O)[C@@H]3NCCC[C@@H]3C(=O)N3CCCC3)C2)cc1 [Example M05899, (2S,4R)-N-((3-chloro-1H-pyrrolo[2,3-b]pyridin-5-yl)methyl)-4-(4-methylbenzyl)-1-((2R,3S)-3-(pyrrolidine-1-carbonyl)piperidine-2-carbonyl)pyrrolidine-2-carboxamide]	+ (fold selectivity values less than 10 (e.g. a fold selectivity value of less than 10 and greater than 1))	∘∘	< 200
Cc1ccc(C[C@@H]2C[C@@H](C(=O)NCC3CCn4c(C)nnc4C3)N(C(=O)[C@@H]3NCCC[C@@H]3C(=O)N3CCCC3)C2)cc1 (stereo partly drawn) [Example M05913, (2S,4R)-N-[(3-mthyl-5,6,7,8-tetrahydro-[1,2,4]triazolo[4,3-a]pyidin-7-yl)methyl]-4-(p-tolylmethyl)-1-[(2R,3S)-3-(pyrrolidine-1-carbonyl)piperidine-2-carbonyl]pyrrolidine-2-carboxamide]	+++ (fold selectivity values greater than 100)	∘∘∘	200 to 800
Cn1nnc2cc(CNC(=O)[C@@H]3C[C@@H](Cc4ccc(C5CC5)cc4)CN3C(=O)[C@@H]3NCCC[C@@H]3C(=O)N3CCCC3)ccc21 [Example M05934, (2S,4R)-4-(4-cyclopropylbenzyl)-N-((1-methyl-1H-benzo[d][1,2,3]triazol-5-yl)methyl)-1-((2R,3S)-3-(pyrrolidine-1-carbonyl)piperidine-2-carbonyl)pyrrolidine-2-carboxamide]	+++ (fold selectivity values greater than 100)	∘∘∘	< 200
CCCc1ccc(C[C@@H]2C[C@@H](C(=O)NCc3ccc4c(c3)nnn4C)N(C(=O)[C@@H]3NCCC[C@@H]3C(=O)N3CCCC3)C2)cc1 [Example M05935]	+++ (fold selectivity values greater than 100)	∘∘∘	200 to 800
COc1ccc(CNC(=O)[C@@H]2C[C@@H](Cc3ccc(C)cc3)CN2C(=O)[C@@H]2NCCC[C@@H]2C(=O)N2CCCC2)cc1 [Example M05965, (2S,4R)-N-[(4-methoxyphenyl)methyl]-4-(p-tolylmethyl)-1-[(2R,3S)-3-(pyrrolidine-1-carbonyl)piperidine-2-carbonyl]pyrrolidine-2-carboxamide]	++ (a fold selectivity value of 10 to 100)	∘∘	≥ 5000
Cn1nnc2cc(CNC(=O)[C@@H]3C[C@@H](CC4=CCC5(CC4)CC5)CN3C(=O)[C@@H]3NCCC[C@@H]3C(=O)N3CCCC3)ccc21 [Example M05991]	+++ (fold selectivity values greater than 100)	∘∘∘	< 200
Cn1nnc2cc(CNC(=O)[C@@H]3C/C(=C/C4=CCC5(CC4)CC5)CN3C(=O)[C@@H]3NCCC[C@@H]3C(=O)N3CCCC3)ccc21 [Example M05992, (S,Z)-N-((1-methyl-1H-benzo[d][1,2,3]triazol-5-yl)methyl)-1-((2R,3S)-3-(pyrrolidine-1-carbonyl)piperidine-2-carbonyl)-4-(spiro[2.5]oct-5-en-6-ylmethylene)pyrrolidine-2-carboxamide]	+++ (fold selectivity values greater than 100)	∘∘∘	200 to 800
Cn1ncc2cc(CNC(=O)[C@@H]3C[C@@H](Cc4ccc(C5CC5)nn4)CN3C(=O)[C@@H]3NCCC[C@@H]3C(=O)N3CCCC3)ccc21 [Example M05997, (2S,4S)-4-[(6-cyclopropylpyridazin-3-yl)methyl]-N-[(1-methylindazol-5-yl)methyl]-1-[(2R,3S)-3-(pyrrolidine-1-carbonyl)piperidine-2-carbonyl]pyrrolidine-2-carboxamide]	+++ (fold selectivity values greater than 100)	∘∘∘	200 to 800
Cc1nnc2cc(CNC(=O)[C@@H]3C[C@@H](Cc4ccc(C5CC5)cc4)CN3C(=O)[C@@H]3NCCC[C@@H]3C(=O)N3CCCC3)ccn12 [Example M06006, (2S,4R)-4-(4-cyclopropylbenzyl)-N-((3-methyl-[1,2,4]triazolo[4,3-a]pyridin-7-yl)methyl)-1-((2R,3S)-3-(pyrrolidine-1-carbonyl)piperidine-2-carbonyl)pyrrolidine-2-carboxamide]	+++ (fold selectivity values greater than 100)	∘∘∘	200 to 800
Cn1ncc2cc(CNC(=O)[C@@H]3C[C@@H](Cc4ncc(C5CC5)o4)CN3C(=O)[C@@H]3NCCC[C@@H]3C(=O)N3CCCC3)ccc21 [Example M06009]	+++ (fold selectivity values greater than 100)	∘∘∘	200 to 800
Cc1ccc(C[C@@H]2C[C@@H](C(=O)NCc3ccc4c(cnn4C)c3)N(C(=O)[C@@H]3NCCC[C@@H]3C(=O)N3CC[C@@H](N(C)C)C3)C2)cc1 [Example M06010, (2S,4R)-1-((2R,3S)-3-((R)-3-(dimethylamino)pyrrolidine-1-carbonyl)piperidine-2-carbonyl)-N-((1-methyl-1H-indazol-5-yl)methyl)-4-(4-methylbenzyl)pyrrolidine-2-carboxamide]	+++ (fold selectivity values greater than 100)	∘∘∘	200 to 800
